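In this assay, cells in 96-well plates receive the compound at five concentrations for 48 hours. Endpoints are linearly interpolated between the surrounding concentrations. GI50 is the concentration that inhibits growth by half. TGI denotes the concentration required for complete inhibition of growth.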
What was measured:
Test in all cases: DTP human tumour cell line panel, 48 h
UO-31 renal = system: UO-31 renal
MALME-3M melanoma = system: MALME-3M melanoma
786-0 renal = system: 786-0 renal
OVCAR-4 ovarian = system: OVCAR-4 ovarian
SK-OV-3 ovarian = system: SK-OV-3 ovarian
DU-145 prostate = system: DU-145 prostate
A549 NSCLC = system: A549 NSCLC
BT-549 breast = system: BT-549 breast
PC-3 prostate = system: PC-3 prostate
HOP-92 NSCLC = system: HOP-92 NSCLC
HOP-62 NSCLC = system: HOP-62 NSCLC
SN12C renal = system: SN12C renal
SR leukemia = system: SR leukemia
HCT-15 colon = system: HCT-15 colon
MDA-MB-468 breast = system: MDA-MB-468 breast
SK-MEL-5 melanoma = system: SK-MEL-5 melanoma
RPMI-8226 leukemia = system: RPMI-8226 leukemia
MCF7 breast = system: MCF7 breast
HL-60(TB) leukemia = system: HL-60(TB) leukemia
M14 melanoma = system: M14 melanoma
NCI-H23 lung = system: NCI-H23 lung
TK-10 renal = system: TK-10 renal
KM12 colon = system: KM12 colon
K-562 leukemia = system: K-562 leukemia
LOX IMVI melanoma = system: LOX IMVI melanoma
MDA-MB-231 breast = system: MDA-MB-231 breast
SF-295 CNS = system: SF-295 CNS
MDA-MB-435 = system: MDA-MB-435
CCRF-CEM leukemia = system: CCRF-CEM leukemia
HS 578T breast = system: HS 578T breast
U251 CNS = system: U251 CNS
T-47D breast = system: T-47D breast
MOLT-4 leukemia = system: MOLT-4 leukemia
SK-MEL-28 melanoma = system: SK-MEL-28 melanoma
HCT-116 colon = system: HCT-116 colon
IGROV1 ovarian = system: IGROV1 ovarian
RXF 393 renal = system: RXF 393 renal
NCI-H522 lung = system: NCI-H522 lung
SW-620 colon = system: SW-620 colon
NCI-H226 lung = system: NCI-H226 lung
SNB-19 CNS = system: SNB-19 CNS
UACC-62 melanoma = system: UACC-62 melanoma
COLO 205 colon = system: COLO 205 colon
EKVX NSCLC = system: EKVX NSCLC
SNB-75 CNS = system: SNB-75 CNS
OVCAR-3 ovarian = system: OVCAR-3 ovarian
ACHN renal = system: ACHN renal
OVCAR-8 ovarian = system: OVCAR-8 ovarian
SK-MEL-2 melanoma = system: SK-MEL-2 melanoma
UACC-257 melanoma = system: UACC-257 melanoma
HCC-2998 colon = system: HCC-2998 colon
A498 renal = system: A498 renal
NCI-H460 lung = system: NCI-H460 lung
SF-539 CNS = system: SF-539 CNS
OVCAR-5 ovarian = system: OVCAR-5 ovarian
HT29 colon = system: HT29 colon
CAKI-1 renal = system: CAKI-1 renal
SF-268 CNS = system: SF-268 CNS

## CCCCOc1ccc(NC(=O)c2sc3nc(C)ccc3c2N)cc1
UO-31 renal
  GI50: 2320 nM
  TGI: 11.2 µM
MALME-3M melanoma
  GI50: 5.31 µM
  TGI: 19.4 µM
786-0 renal
  GI50: 1860 nM
  TGI: 4.21 µM
OVCAR-4 ovarian
  GI50: 1490 nM
  TGI: 5.97 µM
SK-OV-3 ovarian
  GI50: 6.36 µM
  TGI: 20 µM
DU-145 prostate
  GI50: 5.29 µM
  TGI: 36.1 µM
A549 NSCLC
  GI50: 3.22 µM
  TGI: 9.73 µM
BT-549 breast
  GI50: 2560 nM
  TGI: 10.2 µM
PC-3 prostate
  GI50: 7.74 µM
  TGI: > 100 µM
HOP-92 NSCLC
  GI50: 5.71 µM
  TGI: 22.8 µM
HOP-62 NSCLC
  GI50: 10.6 µM
  TGI: 28 µM
SN12C renal
  GI50: 4.09 µM
  TGI: 22.8 µM
SR leukemia
  GI50: 3.3 µM
  TGI: > 100 µM
HCT-15 colon
  GI50: 3.87 µM
  TGI: 17.7 µM
MDA-MB-468 breast
  GI50: 1230 nM
  TGI: 3.29 µM
SK-MEL-5 melanoma
  GI50: 2000 nM
  TGI: 10.2 µM
RPMI-8226 leukemia
  GI50: 8.14 µM
  TGI: > 100 µM
MCF7 breast
  GI50: 3.07 µM
  TGI: 16.4 µM
HL-60(TB) leukemia
  GI50: 49.9 µM
  TGI: > 100 µM
M14 melanoma
  GI50: 12.6 µM
  TGI: 35.2 µM
NCI-H23 lung
  GI50: 1500 nM
  TGI: 3.56 µM
TK-10 renal
  GI50: 5.57 µM
  TGI: 20.4 µM
KM12 colon
  GI50: 3.96 µM
  TGI: 18.5 µM
K-562 leukemia
  GI50: 2850 nM
  TGI: > 100 µM
LOX IMVI melanoma
  GI50: 2360 nM
  TGI: 6.68 µM
MDA-MB-231 breast
  GI50: 2930 nM
  TGI: 10.6 µM
SF-295 CNS
  GI50: 2590 nM
  TGI: 10.3 µM
MDA-MB-435
  GI50: 4.96 µM
  TGI: 22.1 µM
CCRF-CEM leukemia
  GI50: 54 µM
  TGI: > 100 µM
HS 578T breast
  GI50: 5.97 µM
  TGI: 38.7 µM
U251 CNS
  GI50: 3.41 µM
  TGI: 11.1 µM
T-47D breast
  GI50: 2820 nM
  TGI: 25.7 µM
MOLT-4 leukemia
  GI50: 7.46 µM
  TGI: > 100 µM
SK-MEL-28 melanoma
  GI50: 12.2 µM
  TGI: 29.8 µM
HCT-116 colon
  GI50: 2280 nM
  TGI: 6.04 µM
IGROV1 ovarian
  GI50: 4.1 µM
  TGI: 17.4 µM
RXF 393 renal
  GI50: 2980 nM
  TGI: 12.9 µM
NCI-H522 lung
  GI50: 2880 nM
  TGI: 15.2 µM
SW-620 colon
  GI50: 11.4 µM
  TGI: 31 µM
NCI-H226 lung
  GI50: 2890 nM
  TGI: 18.7 µM
SNB-19 CNS
  GI50: 3.47 µM
  TGI: 13.8 µM
UACC-62 melanoma
  GI50: 6.89 µM
  TGI: 22.9 µM
COLO 205 colon
  GI50: 19.3 µM
  TGI: 54.4 µM
EKVX NSCLC
  GI50: 2170 nM
  TGI: 14.7 µM
SNB-75 CNS
  GI50: 2390 nM
  TGI: 9.02 µM
OVCAR-3 ovarian
  GI50: 2800 nM
  TGI: 8.65 µM
ACHN renal
  GI50: 2720 nM
  TGI: 12.7 µM
OVCAR-8 ovarian
  GI50: 2610 nM
  TGI: 6.67 µM
SK-MEL-2 melanoma
  GI50: 8.95 µM
  TGI: 31.4 µM
UACC-257 melanoma
  GI50: 10 µM
  TGI: 44.6 µM
HCC-2998 colon
  GI50: 4.73 µM
  TGI: 20.6 µM
A498 renal
  GI50: 14.9 µM
  TGI: 28.5 µM
NCI-H460 lung
  GI50: 3.23 µM
  TGI: 10.9 µM
SF-539 CNS
  GI50: 1890 nM
  TGI: 3.77 µM
OVCAR-5 ovarian
  GI50: 4.61 µM
  TGI: 28.8 µM
HT29 colon
  GI50: 6.83 µM
  TGI: 26.3 µM
CAKI-1 renal
  GI50: 3.47 µM
  TGI: 16.7 µM
SF-268 CNS
  GI50: 6.39 µM
  TGI: 29.9 µM
